By IC50 is commonly meant the concentration that inhibits the measured activity by half.

The source made the active and inactive calls. The rule behind the calls is not given here. A value given as a limit tells only on which side of the number the result lay.

The source of these data is PubChem BioAssay AID2250 (Sanford-Burnham Center for Chemical Genomics, 2010).

The subject of this assay is MCF-7/NOD1 cells, GM-Tri-DAP induced IL-8 secretion. Kind of assay: inhibition of NOD1-driven IL-8 release, SAR follow-up, MCF-7/NOD1 cells, GM-Tri-DAP stimulus (AID 2250).

In the case of `O=C(O)c1c(NC(=O)N2CCOCC2)sc2c1CCCC2`, the IC50 was > 25 µM (inactive).

Turning to `Cc1ccc(S(=O)(=O)n2c(N)nc3cc(C)c(C)cc32)cc1`, the IC50 was > 5 µM (inactive).
